# Where two headings read alike, the source gives them in different places.
# Columns and labels:
# [1] = test system: TA97a and TA100 S. typhimurium; assay: mini-Ames test; settings: 96-well format
# Excerpt: Test were ran with TA97a (shown) and TA100 S. typhimurium.
# Tests were run with TA97a (shown) and TA100 S. typhimurium.
# HEK293 Lysate = assay: Hek293 lysate inhibition assay; format: biochemical
# Experimental: Hek293 cells were purchased from ATCC and cultured in Dulbecco's modified eagle's medium with glutamax and 10% (v/v) FBS. Cells were plated in 75 cm^2 flasks and incubated at 37° C. and 5% CO2 until −80% confluent. Cells were harvested, washed, and pelleted, lysed before protein concentration was determined using a Tecan M200 spectrophotometer in a BCA assay, and finally stored at −80° C. Upon need, lysate was thawed and diluted to 1 mg/mL of protein concentration with HDAC Buffer. […] The solution was buffered to a pH of 8 and addition of 1 mg/mL BSA was added. 10 μL of this diluted lysate solution was added in 96-well format black U-bottom plates. Serially diluted inhibitor solution was added and a 2 hour pre incubation occurred at 37° C. 50 μM (final) of Acetylated Lysine-Aminomethyl coumarin-BOC in HDAC buffer solution was added and a second 2 hour incubation occurred at 37° C. 5 mg/mL trypsin, 1 μM trichostatin A solution in HDAC buffer was added to quench the reaction. […] Data were normalized to control wells containing no inhibitor. IC50's were determined using GraphPad Prism's built in “log(inhibitor) vs. normalized response—Variable slope” function.
# HDAC3 = HDAC3 (Homo sapiens (Human), UniProt O15379); assay: Recombinant HDAC inhibition assay (HDAC3); format: biochemical
# Experimental: Recombinant HDACs 1, 2, and 3 (BPS Biosciences) were diluted to a concentration of 1 nM in HDAC buffer. 10 uL of this solution was added in 96-well format to black U-bottom plates. 10 uL of serially diluted inhibitor was added and a 2 hour pre incubation occurred at room temperature. 50 μM (final) of Acetylated Lysine-Aminomethyl coumarin-BOC in HDAC buffer solution was added and a second 2 hour incubation occurred at room temperature. 5 mg/mL trypsin, 1 μM trichostatin A solution in HDAC buffer was added to quench the reaction. […] Data were normalized to control wells containing no inhibitor. IC50's were determined using GraphPad Prism's built in “log(inhibitor) vs. normalized response—Variable slope” function.
# HDAC1 = HDAC1 (Homo sapiens (Human), UniProt Q13547); assay: Recombinant HDAC inhibition assay (HDAC1); format: biochemical
# Experimental: (§1) Recombinant HDACs 1, 2, and 3 (BPS Biosciences) were diluted to a concentration of 1 nM in HDAC buffer. 10 uL of this solution was added in 96-well format to black U-bottom plates. 10 uL of serially diluted inhibitor was added and a 2 hour pre incubation occurred at room temperature. 50 μM (final) of Acetylated Lysine-Aminomethyl coumarin-BOC in HDAC buffer solution was added and a second 2 hour incubation occurred at room temperature. 5 mg/mL trypsin, 1 μM trichostatin A solution in HDAC buffer was added to quench the reaction. Fluorescence was read at 360 (ex.)/460 (em.) using a Tecan M200 Pro. Data were normalized to control wells containing no inhibitor. IC50's were determined using GraphPad Prism's built in “log(inhibitor) vs. normalized response—Variable slope” function.
# HDAC2 = HDAC2 (Homo sapiens (Human), UniProt Q92769); assay: Recombinant HDAC inhibition assay (HDAC2); format: biochemical
# Experimental: as §1
# Raw264.7 = assay: HMGB-1 secretion by macrophages; format: cell-based; settings: LPS plus ATP challenge
# [2] = reported, cited from earlier work
# MV4-11 cells = assay: Western blot analysis of MV4-11 cells; format: cell-based
# Experimental: MV4-11 cells were cultured as described above. Cells were plated at 500 k cells/mL×3 mLs in clear, flat bottom 6 well plates. Cells were pre-incubated for 24 hours before addition of inhibitor at various concentrations. […] Cell pellets were lysed with RIPA buffer. RIPA buffer is comprised of 50 mM Tris Base, 150 mM NaCl, 5 mM EDTA, 0.1% (v/v) SDS, 0.5% (v/v) Sodium Deoxycholate, and 1% (v/v) Triton-x-100. After lysing, the suspension is ultra-sonicated and centrifuged at 15000 RPM for 15 minute at 4° C. 80 μL of supernatant was mixed with 40 μL of 15:85 (v/v) 3-mercaptoethanol:LDS solution. The mixture was heated at 90° C. for 15 minutes and stored for loading at −20° C. Prior to loading, the solution was flash thawed at 90° C. Lysates were run on Invitrogen NuPAGE 4-12% Bis-Tris 15 well gels at 170V for approximately 60 minutes in MES buffer. Gels were transferred to […] and ran at 30V for 180 minutes. Primary antibodies, purchased from Santa Cruz Biotechnology, were added in 5% (w/v) milk or 5% (w/v) Bovine Serum Albumin fraction V. The antibody was incubated with cellulose overnight at 4° C. before addition of secondary antibody in 5% (w/v) milk or 5% (w/v) Bovine Serum Albumin. Images were read using a GE ImageQuant LAS 4000. Global lighting adjustments of resulting images were made using Adobe Photoshop CC. Quantification was performed using Image Studio Lite 4.0.
# [3] = in human, reported; cited from earlier work
# [4] = test system: Raw246.7 macrophage cells; assay: NO production in activated macrophages; format: cell-based; settings: 100 nM, LPS and LPS+ATP
# Excerpt: Hypo-acetylation of histone H3 and H4 were also reversed with HDAC inhibitor treatments (yellow dash box). d.
# Chain of HDAC2 (Q92769 whole entry): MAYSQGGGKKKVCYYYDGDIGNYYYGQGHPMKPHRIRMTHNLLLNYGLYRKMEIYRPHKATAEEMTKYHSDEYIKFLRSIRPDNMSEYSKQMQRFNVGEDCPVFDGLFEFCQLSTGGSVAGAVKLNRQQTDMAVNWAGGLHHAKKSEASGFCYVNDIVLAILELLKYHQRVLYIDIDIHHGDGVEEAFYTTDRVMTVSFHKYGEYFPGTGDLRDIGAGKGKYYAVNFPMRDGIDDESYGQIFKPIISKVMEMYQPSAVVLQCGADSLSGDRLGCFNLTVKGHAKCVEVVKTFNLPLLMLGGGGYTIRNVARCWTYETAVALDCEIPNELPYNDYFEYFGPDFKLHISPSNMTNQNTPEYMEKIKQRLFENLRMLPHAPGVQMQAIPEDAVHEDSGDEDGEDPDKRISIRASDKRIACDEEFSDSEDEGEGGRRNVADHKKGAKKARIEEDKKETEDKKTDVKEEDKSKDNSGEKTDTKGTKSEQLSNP
# Chain of HDAC3 (O15379 whole entry): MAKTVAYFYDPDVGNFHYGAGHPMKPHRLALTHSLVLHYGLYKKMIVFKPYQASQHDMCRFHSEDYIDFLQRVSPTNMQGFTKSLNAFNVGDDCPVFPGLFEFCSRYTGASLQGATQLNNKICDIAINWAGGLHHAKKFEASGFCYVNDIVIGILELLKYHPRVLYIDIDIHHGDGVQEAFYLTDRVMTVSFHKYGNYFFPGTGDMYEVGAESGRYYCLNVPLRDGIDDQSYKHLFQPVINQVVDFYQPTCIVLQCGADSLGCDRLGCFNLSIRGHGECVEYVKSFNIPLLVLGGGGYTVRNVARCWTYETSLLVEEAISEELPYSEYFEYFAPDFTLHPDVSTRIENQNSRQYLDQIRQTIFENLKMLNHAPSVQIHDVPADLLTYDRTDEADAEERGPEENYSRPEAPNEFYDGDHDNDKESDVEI
# Chain of HDAC3 (Q9Y618 395-489 partner): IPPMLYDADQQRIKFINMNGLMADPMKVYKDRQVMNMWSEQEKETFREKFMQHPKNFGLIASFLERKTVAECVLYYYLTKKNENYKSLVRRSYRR
# Chain of HDAC1 (Q13547 whole entry): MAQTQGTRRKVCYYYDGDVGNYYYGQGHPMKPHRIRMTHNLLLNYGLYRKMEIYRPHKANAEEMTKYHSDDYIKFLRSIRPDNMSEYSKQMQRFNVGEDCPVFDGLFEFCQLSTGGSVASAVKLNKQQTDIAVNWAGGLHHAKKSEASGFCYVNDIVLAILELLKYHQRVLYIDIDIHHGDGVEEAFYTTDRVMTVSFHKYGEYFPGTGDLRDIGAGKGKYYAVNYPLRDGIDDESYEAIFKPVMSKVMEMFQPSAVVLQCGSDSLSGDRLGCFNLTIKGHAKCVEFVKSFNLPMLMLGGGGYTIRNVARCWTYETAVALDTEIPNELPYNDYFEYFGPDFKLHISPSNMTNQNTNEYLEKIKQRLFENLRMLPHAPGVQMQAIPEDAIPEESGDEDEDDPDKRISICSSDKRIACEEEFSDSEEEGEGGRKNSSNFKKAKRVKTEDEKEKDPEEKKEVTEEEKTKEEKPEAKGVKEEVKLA
SMILES,IC50 (HEK293 Lysate) [nM],IC50 (HDAC3) [nM],further results
Nc1ccc2cc3ccccc3cc2c1 [2-aminoanthracene],–,–,mutagenicity (mini-Ames) [1]: Ames positive
"CCCCNNC(=O)c1ccc(OC)cc1 [Compound 1a, N′-butyl-4-methoxybenzohydrazide]",727 ± 10.8,157 ± 28.6,–
"CCCCNNC(=O)c1cc2ccccc2o1 [Compound 1b, N′-butylbenzofuran-2-carbohydrazide]",1690 ± 38,1360 ± 197,–
"CCCCNNC(=O)c1ccc(Oc2ccccc2)cc1 [Compound 1c, N′-butyl-4-phenoxybenzohydrazide]",1690 ± 298,312 ± 42.8,–
"CCCCNNC(=O)c1cccnc1 [Compound 1d, N′-butylnicotinohydrazide]",4680 ± 909,1550 ± 430,–
"CCCCNNC(=O)c1cccs1 [Compound 1f, N′-butylthiophene-2-carbohydrazide]",3460 ± 669,904 ± 154,–
"CCCCNNC(=O)c1ccco1 [Compound 1g, N′-butylfuran-2-carbohydrazide]",> 10000,5000 ± 372,–
"CCCCNNC(=O)CCc1ccccc1 [Compound 1h, N′-butyl-3-phenylpropanehydrazide]",> 10000,1890 ± 227,–
"CCCCNNC(=O)/C=C/c1ccccc1 [Compound 1i, N′-butylcinnamohydrazide]",1440 ± 86.1,294 ± 32.6,–
"CCCCNNC(=O)c1cccc2ccccc12 [Compound 1j, N′-butyl-1-naphthohydrazide]",> 10000,> 10000,–
"CCCCNNC(=O)c1ccc(CNC(=O)c2ccccc2)cc1 [Compound 1l, N-(4-(2-butylhydrazine-1-carbonyl)benzyl)benzamide]",–,–,IC50 (HDAC1): 18.9 ± 2.74 nM; IC50 (HDAC2): 65.2 ± 10.4 nM
"C/C=C/CNNC(=O)c1ccc(CNC(=O)c2ccccc2)cc1 [Compound 2a, (E)-N-(4-(2-(but-2-en-1-yl)hydrazine-1-carbonyl)benzyl)benzamide]",> 10000,1530 ± 228,HMGB-1 secretion (Raw264.7): attenuated
"CC(C)NNC(=O)c1ccc(CNC(=O)c2ccccc2)cc1 [Compound 2b, N-(4-(2-isopropylhydrazine-1-carbonyl)benzyl)benzamide]",> 10000,> 10000,–
"CC/C=N/NC(=O)c1ccc(CNC(=O)c2ccccc2)cc1 [Compound 2c, (E)-N-(4-(2-propylidenehydrazine-1-carbonyl)benzyl)benzamide]",> 10000,> 10000,–
"CCCNNC(=O)c1ccc(CNC(=O)c2ccccc2)cc1 [Compound 2d, N-(4-(2-propylhydrazine-1-carbonyl)benzyl)benzamide]",–,–,IC50 (HDAC1): 13.2 ± 2.01 nM; IC50 (HDAC2): 77.6 ± 9.52 nM
"CCCCCNNC(=O)c1ccc(CNC(=O)c2ccccc2)cc1 [Compound 2e, N-(4-(2-pentylhydrazine-1-carbonyl)benzyl)benzamide]",–,–,IC50 (HDAC1): 20.2 ± 5.04 nM; IC50 (HDAC2): 43.6 ± 33.2 nM

SMILES,IC50 (HEK293 Lysate) [nM],IC50 (HDAC3) [nM],further results
"O=C(NCc1ccc(C(=O)NNCCC(F)(F)F)cc1)c1ccccc1 [Compound 2f, N-(4-(2-(3,3,3-trifluoropropyl)hydrazine-1-carbonyl)benzyl)benzamide]",1230 ± 136,69.1 ± 0.52,–
"O=C(NCc1ccc(C(=O)NNCC2CC2)cc1)c1ccccc1 [Compound 2g, N-(4-(2-(cyclopropylmethyl)hydrazine-1-carbonyl)benzyl)benzamide]",1620 ± 196,39.93 ± 0.25,–
"CCCCCCCNNC(=O)c1ccc(CNC(=O)c2ccccc2)cc1 [Compound 2h, N-(4-(2-heptylhydrazine-1-carbonyl)benzyl)benzamide]",2160 ± 896,569 ± 84.9,–
"CCCCCCCCNNC(=O)c1ccc(CNC(=O)c2ccccc2)cc1 [Compound 2i, N-(4-(2-octylhydrazine-1-carbonyl)benzyl)benzamide]",> 10000,1090 ± 334,–
"CCCCCCNNC(=O)c1ccc(CNC(=O)c2ccccc2)cc1 [Compound 2j, N-(4-(2-hexylhydrazine-1-carbonyl)benzyl)benzamide]",550 ± 134,184 ± 74.5,–
"CCCCCCCCCCNNC(=O)c1ccc(CNC(=O)c2ccccc2)cc1 [Compound 2k, N-(4-(2-decylhydrazine-1-carbonyl)benzyl)benzamide]",> 10000,> 10000,–
"CCNNC(=O)c1ccc(CNC(=O)c2ccccc2)cc1 [Compound 2l, N-(4-(2-ethylhydrazine-1-carbonyl)benzyl)benzamide]",427 ± 110,187.3 ± 0.6,–
"O=C(NCc1ccc(C(=O)NNCC2CCC2)cc1)c1ccccc1 [Compound 2m, N-(4-(2-(cyclobutylmethyl)hydrazine-1-carbonyl)benzyl)benzamide]",1880 ± 212,84.4 ± 7.22,–
"CCNNC(=O)c1ccc(CNC(=O)/C=C/c2ccccc2)cc1 [Compound 3a, N-(4-(2-ethylhydrazine-1-carbonyl)benzyl)cinnamamide]",171 ± 34.2,19.7 ± 1.41,IC50 (HDAC1): 29.5 ± 10.7 nM; IC50 (HDAC2): 76.6 ± 9.74 nM
"CCCCNNC(=O)c1ccc(CNC(=O)/C=C/c2ccccc2)cc1 [Compound 3c, N-(4-(2-butylhydrazine-1-carbonyl)benzyl)cinnamamide]",–,–,IC50 (HDAC1): 60.2 ± 21 nM; IC50 (HDAC2): 70 ± 26.4 nM
"CCCCCNNC(=O)c1ccc(CNC(=O)/C=C/c2ccccc2)cc1 [Compound 3d, N-(4-(2-pentylhydrazine-1-carbonyl)benzyl)cinnamamide]",691 ± 54.7,32.5 ± 1.15,IC50 (HDAC1): 47.4 ± 16.8 nM; IC50 (HDAC2): 99.6 ± 17.4 nM
"CCCCCCNNC(=O)c1ccc(CNC(=O)/C=C/c2ccccc2)cc1 [Compound 3e, N-(4-(2-hexylhydrazine-1-carbonyl)benzyl)cinnamamide]",1720 ± 139,150 ± 81.6,IC50 (HDAC1): 81.4 ± 12 nM; IC50 (HDAC2): 139 ± 29.9 nM
CCCCc1nc2cc(/C=C/C(=O)NO)ccc2n1CCN(CC)CC [Pracinostat],–,–,"AUCinf [2]: 1,841 ng·h/mL; Cmax [2]: 2,632 ng/mL; t1/2 [2]: 2.4 h"
Cc1[nH]c2ccccc2c1CCNCc1ccc(/C=C/C(=O)NO)cc1 [panobinostat],–,–,mutagenicity (mini-Ames) [1]: Ames positive; t1/2 ([2]; in rodent): 2.9 h; Cmax [2]: 116 ng/mL; increase in Hsp70 level (MV4-11 cells): observed; t1/2 [3]: 16 h
"O=C(CCCCCCC(=O)Nc1ccccc1)NO [vorinostat, suberanilohydroxamic acid, reference compound]",–,–,"t1/2 [2]: 0.2 h; NO production, acute treatment [4]: only inhibited LPS induced NO production but not ATP driven ones; HMGB-1 secretion (Raw264.7): attenuated; increase in Hsp70 level (MV4-11 cells): observed"

# From patent US10870618B2, “Histone deacetylase inhibitors and uses thereof” (MUSC FOUNDATION FOR RESEARCH DEVELOPMENT, priority 2016, dated 2020)
